Data reported in patent publication US8748600B2, “Cyclic triazo sodium channel blockers” (University of Greenwich, priority 2009, dated 2014).

What was measured:
[1] = biological target: T1, DiHydroFolate Reductase (DHFR) (Rattus norvegicus, UniProt Q920D2); test: Inhibition of binding of [3H]methotrexate to rat liver homogenate supernatant (DHFR); settings: read-out: DHFR (% inhibition @ 125 μm)
T1 construct: from tissue; host or cells: rat liver homogenate, 47,500 x g supernatant
T1 sequence (Q920D2 1-187): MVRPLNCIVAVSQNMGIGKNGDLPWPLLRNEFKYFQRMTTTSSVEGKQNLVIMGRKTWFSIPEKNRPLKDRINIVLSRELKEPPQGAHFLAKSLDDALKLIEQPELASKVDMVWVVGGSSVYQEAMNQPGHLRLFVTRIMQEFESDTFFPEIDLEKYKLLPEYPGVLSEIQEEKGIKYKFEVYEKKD
Procedure: All steps were carried out at 4° (or on ice). Freshly dissected rat liver was dissected into 0.25M ice-cold Sucrose and subsequently homogenised (U-turrax) in 50 mM pH 6.0 phosphate buffer (10 ml/g tissue) containing 15 mM Dithiothreitol. The resulting homogenate was centrifuged @ 47,500×g for 20 min and supernatant (filtered through cotton wool to remove fatty lumps) stored @-80° before use (Rothenberg et al).
Inhibition of the binding of [^3H]methotrexate to rat liver homogenate supernatant fractions were carried out essentially as described by Arons et al, 1975.

sodium channel (Nach) = test: Inhibition of binding of [3H]BTX-B to rat forebrain homogenates; settings: extrapolated IC50; [3H]BTX-B binding
Procedure: Experiments were performed using forebrain (whole brain less cerebellum/medulla) from Male Wistar rats weighing 175-250 g. All efforts were made to reduce the number of animals used and all experiments were carried out in accordance with the UK Animals (Scientific Procedures) Act, 1986 and the European Community Council Directive of 24 Nov. 1986 (86/609/EEC). Following killing of animals by stunning and decapitation, the forebrain (whole brain less cerebellum/medulla) was rapidly dissected and transferred to a weighed tube containing ice-cold 0.25M sucrose.
Homogenates were prepared by transferring the known weight of forebrain to a cooled tube containing 9 volumes of ice-cold 50 mM pH 7.4 HEPES buffer. The mixture was homogenised @ 4° by 3×5 sec bursts of an Ultra-Turrax™ homogeniser set at maximum speed. The resulting homogenate was centrifuged at 40,000×g (average) at 4° for 15 min and the supernatant discarded. The resulting pellet was resuspended in 9 volumes of fresh ice-cold pH 7.4 buffer (as above), the centrifugation step was repeated and the resulting pellet resuspended in the [^3H]BTX-B binding buffer at a concentration of 20-25 mg wet weight per ml assay buffer.
Both assays were carried out using 14 ml polypropylene test tubes to which a range of concentrations of the compounds under test were added.
[^3H]BTX-B binding was carried out using the method described by Catterall et al (1981), except that both bovine serum albumin and TTX were omitted from the incubation medium.
IC50 values were obtained from radioligand displacement or guanidine flux inhibition curves by plotting log10 concentration vs bound ligand/guanidine uptake according the equation:— y=Rmin+Rsp/{1+exp [−n(x−C)]}
and • C=IC50 (i.e. concentration required to inhibit 50% of specific binding Hippocampal Slice Assay

| SMILES | inhibition at […] [1] [%] | IC50 (sodium channel (Nach)) [µM] |
| --- | --- | --- |
| Nc1nnc(C2(c3ccccc3)CCCCC2)c(N)n1 [CEN-230] | 0 | 23 |
| COc1ccc(C2(c3nnc(N)nc3N)CCCCC2)cc1 [CEN-231] |  | 1 |
| Nc1nnc(C2(c3ccccc3)CCCC2)c(N)n1 [CEN-232] | 100 | 5 |
| COc1ccc(C2(c3nnc(N)nc3N)CCCC2)cc1 [CEN-234] | 22 | 3 |
| Nc1nnc(C2(c3ccc(Cl)cc3Cl)CC2)c(N)n1 [CEN-235] | 63 | 8 |
| Nc1nnc(C2(c3cccc(F)c3)CCCC2)c(N)n1 [CEN-236] | 14 | 4 |
| Cc1ccc(C2(c3nnc(N)nc3N)CCCC2)cc1 [CEN-237] | 70 | < 0.5 |
| Nc1nnc(C2CC2c2ccccc2)c(N)n1 (stereo not drawn) [CEN-238] |  | > 190 |
| Cc1ccc(C2(c3nnc(N)nc3N)CCCCC2)cc1 [CEN-239] | 73 | < 0.5 |
| Nc1nnc(C2(c3ccccc3)CC2)c(N)n1 [CEN-240] | 8 |  |
| Nc1nnc(C(Cc2ccccc2)c2ccccc2)c(N)n1 (stereo not drawn) [CEN-241] | 90 |  |
| COc1ccc(C2(c3nnc(N)nc3N)CC2)cc1 [CEN-244] | 0 | 115 |
| Nc1nnc(-c2cccc(OCc3cccc4ccccc34)c2)c(N)n1 [CEN-245] | 55 | 57 |
| Nc1nnc(C(c2ccc(F)cc2)c2ccc(F)cc2)c(N)n1 [CEN-247] | 0 | 9 |
